The source made the active and inactive calls.
What was measured:
Vero = assay: host cell cytotoxicity of antiviral hits, dose response, cytotoxicity control for West Nile virus antiviral project, secondary assay (AID 1650); format: functional, Chlorocebus sabaeus; conditions: Chlorocebus sabaeus, Vero
[1] = growth suppression of beta-catenin-knockout colon cells, dose response, cell-based, HCT116, human colon tumor (AID 1045); format: functional;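 further: HCT116 colon tumor cells with beta catenin knocked out; cells exposed to compound for 60 hours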
[2] = molecular target: Induced myeloid leukemia cell differentiation protein Mcl-1 (Homo sapiens, UniProt Q07820); format: functional
Sequence of Induced myeloid leukemia cell differentiation protein Mcl-1 (Q07820 whole entry): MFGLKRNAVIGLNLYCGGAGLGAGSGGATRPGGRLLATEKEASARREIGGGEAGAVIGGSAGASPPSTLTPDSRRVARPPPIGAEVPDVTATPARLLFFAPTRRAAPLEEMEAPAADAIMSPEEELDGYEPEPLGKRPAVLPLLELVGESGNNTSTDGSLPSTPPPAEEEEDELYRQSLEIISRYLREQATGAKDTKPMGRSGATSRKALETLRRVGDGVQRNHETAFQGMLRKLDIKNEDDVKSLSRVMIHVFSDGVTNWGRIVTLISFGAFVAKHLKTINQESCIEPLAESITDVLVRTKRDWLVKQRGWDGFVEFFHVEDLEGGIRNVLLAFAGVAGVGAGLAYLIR

[3] = growth suppression of PTEN-null colon cells, dose response, cell-based, HCT116 PTEN knockout (AID 1047); format: functional;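 further: HCT116 colon tumor cells with PTEN knocked out; cells exposed to compound for 60 hours before readout; potency for loss of cell viability measured by luminescence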
Kallikrein-7 = Kallikrein-7 (Homo sapiens, UniProt P49862); assay: Fluorescence Intensity-based biochemical primary high throughput dose response assay to identify activators of kallikrein-7 (K7) zymogen.
Sequence of Kallikrein-7 (P49862 whole entry): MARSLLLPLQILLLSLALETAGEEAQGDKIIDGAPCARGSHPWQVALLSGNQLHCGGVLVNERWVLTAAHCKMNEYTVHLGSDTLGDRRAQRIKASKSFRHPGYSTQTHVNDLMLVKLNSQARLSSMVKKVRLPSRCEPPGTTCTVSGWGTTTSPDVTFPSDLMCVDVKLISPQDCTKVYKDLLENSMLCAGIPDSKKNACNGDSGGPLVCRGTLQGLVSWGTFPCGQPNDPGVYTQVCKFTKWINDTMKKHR

cells [4] = format: functional, cell-based
cells [5] = format: functional, cell-based; remark: listed apart in the source
[6] = molecular target: T1, Trace amine-associated receptor 1 (Homo sapiens, UniProt Q96RJ0); assay: Fluorescence-based cell-based high throughput dose response assay to identify agonists of the human trace amine associated receptor 1 (TAAR1).; format: functional
T1 sequence (Q96RJ0 whole entry): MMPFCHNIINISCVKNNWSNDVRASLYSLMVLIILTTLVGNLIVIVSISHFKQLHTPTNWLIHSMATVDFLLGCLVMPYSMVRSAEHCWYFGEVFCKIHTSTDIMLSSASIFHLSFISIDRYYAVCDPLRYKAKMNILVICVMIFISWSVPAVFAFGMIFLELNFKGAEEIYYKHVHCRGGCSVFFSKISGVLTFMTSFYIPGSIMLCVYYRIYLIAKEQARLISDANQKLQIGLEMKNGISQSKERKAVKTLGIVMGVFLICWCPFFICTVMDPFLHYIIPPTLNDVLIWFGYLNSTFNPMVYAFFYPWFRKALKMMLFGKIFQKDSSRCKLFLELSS

[7] = molecular target: T1, Trace amine-associated receptor 1; assay: Counterscreen for agonists of the human trace amine associated receptor 1 (hTAAR1): Fluorescence-based cell-based high throughput dose response assay to identify hTAAR1 agonist that also desensitize TAAR1 receptor response.; format: functional
[8] = molecular target: T2, Corticotropin-releasing factor receptor 2/Corticotropin-releasing factor-binding protein (Homo sapiens, UniProt P24387+Q13324); assay: Dose Response confirmation of uHTS hits for small molecule antagonists of the CRF-binding protein and CRF-R2 receptor complex.; format: functional; conditions: read-out: IC50_Mean
T2 sequence (Q13324 whole entry): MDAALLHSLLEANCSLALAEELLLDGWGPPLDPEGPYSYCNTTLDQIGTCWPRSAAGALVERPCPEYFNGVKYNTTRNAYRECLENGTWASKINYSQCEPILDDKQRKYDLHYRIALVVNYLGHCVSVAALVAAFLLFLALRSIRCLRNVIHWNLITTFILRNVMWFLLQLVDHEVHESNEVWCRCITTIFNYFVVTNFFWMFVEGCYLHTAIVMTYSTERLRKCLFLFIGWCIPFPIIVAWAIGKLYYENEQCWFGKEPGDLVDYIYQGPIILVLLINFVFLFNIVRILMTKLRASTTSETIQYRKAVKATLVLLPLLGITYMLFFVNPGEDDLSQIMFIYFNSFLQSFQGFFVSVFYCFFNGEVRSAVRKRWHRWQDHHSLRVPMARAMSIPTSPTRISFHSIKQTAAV
T2 sequence (P24387 whole entry): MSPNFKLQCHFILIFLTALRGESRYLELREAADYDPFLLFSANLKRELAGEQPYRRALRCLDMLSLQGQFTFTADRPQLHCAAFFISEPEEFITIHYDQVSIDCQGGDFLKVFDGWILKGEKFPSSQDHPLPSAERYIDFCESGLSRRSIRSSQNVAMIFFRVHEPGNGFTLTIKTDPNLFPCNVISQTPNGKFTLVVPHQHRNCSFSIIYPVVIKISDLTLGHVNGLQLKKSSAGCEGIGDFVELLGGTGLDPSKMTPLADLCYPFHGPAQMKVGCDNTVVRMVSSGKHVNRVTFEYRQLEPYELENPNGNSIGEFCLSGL

[9] = molecular target: T2, Corticotropin-releasing factor receptor 2/Corticotropin-releasing factor-binding protein; assay: activators of CRF receptor 2 with binding protein – uHTS hits, confirmation (AID 602473); format: functional; conditions: read-out: EC50_Mean
[10] = molecular target: T3, High affinity choline transporter 1 (Homo sapiens, UniProt Q9GZV3); assay: CHT inhibitors, dose response, cell-based, 5-point CRC, membrane potential dye (AID 504840); format: functional
T3 sequence (Q9GZV3 whole entry): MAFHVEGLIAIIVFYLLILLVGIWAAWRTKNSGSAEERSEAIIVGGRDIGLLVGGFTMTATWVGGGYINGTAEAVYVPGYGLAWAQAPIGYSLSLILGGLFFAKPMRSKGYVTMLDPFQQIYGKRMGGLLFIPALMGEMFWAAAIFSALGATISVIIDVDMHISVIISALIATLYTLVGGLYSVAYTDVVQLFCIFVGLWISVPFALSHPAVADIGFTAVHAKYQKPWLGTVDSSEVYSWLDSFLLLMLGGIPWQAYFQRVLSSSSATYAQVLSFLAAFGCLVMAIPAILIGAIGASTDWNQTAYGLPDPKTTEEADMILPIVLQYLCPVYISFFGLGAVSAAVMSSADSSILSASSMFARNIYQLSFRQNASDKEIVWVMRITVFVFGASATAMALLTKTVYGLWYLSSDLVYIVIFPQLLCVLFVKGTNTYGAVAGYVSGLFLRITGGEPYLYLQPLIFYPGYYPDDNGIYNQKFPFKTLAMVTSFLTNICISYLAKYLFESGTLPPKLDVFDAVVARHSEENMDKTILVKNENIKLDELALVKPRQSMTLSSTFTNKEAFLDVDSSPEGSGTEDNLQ

[11] = molecular target: T4, Ubiquitin-conjugating enzyme E2 N (Homo sapiens, UniProt P61088); format: functional;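 further: Dose-response confirmation in a TR-FRET assay detecting UBC13-driven polyubiquitin chain formation, inhibition measured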
T4 sequence (P61088 whole entry): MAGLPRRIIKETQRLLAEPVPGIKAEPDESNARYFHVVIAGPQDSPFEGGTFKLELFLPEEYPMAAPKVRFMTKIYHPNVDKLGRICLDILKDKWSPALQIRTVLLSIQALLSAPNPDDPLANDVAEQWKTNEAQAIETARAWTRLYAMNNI

[12] = intracellular Trypanosoma cruzi inhibitors in host cells – cell-based, plate reader, cherry-pick samples, set 3, dose response (AID 651818); format: functional;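 further: compounds incubated with infected cells for about four days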

| Compound | EC50 (cells [4]) | IC50 (cells [5]) | EC50 [6] | IC50 [7] | other results |
| --- | --- | --- | --- | --- | --- |
| Cn1c(=O)[nH]c(=O)c2c1nc(N1CCCCC1)n2CCCSc1nc2ccccc2s1 |  |  |  |  | CC50 (Vero): > 100 µM (active) |
| CCN=c1ccc(Br)cc(C(=O)/C=C/c2c(Cl)cccc2Cl)c1O |  |  |  |  | EC50 [1]: 1.67 µM (active); IC50 [2]: 2.32 µM (active); CC50 (Vero): > 100 µM (active); EC50 [3]: 1.92 µM (active) |
| Cc1cc(NCCCCO)n2c(nc3ccccc32)c1C#N |  |  |  |  | EC50 (Kallikrein-7): > 69.5 µM (inactive) |
| CNCCc1ccccn1 | > 29.9 µM (inactive) | > 29.9 µM (inactive) | 1.24 µM (active) | 6.02 µM (active) |  |
| CN1C(=O)NC(c2ccccc2)C2=C1CN(CCc1ccccc1)C2=O (stereo not drawn) | > 29.9 µM (inactive) | > 29.9 µM (inactive) | 1.03 µM (active) | 5.74 µM (active) | IC50 [8]: > 47.1 µM (inactive); EC50 [9]: > 53 µM (inactive) |
| Cc1cc(C(=O)CN2C(=O)C(=O)N(C3CCCC3)C2=O)c(C)n1CCc1ccccc1 | > 29.9 µM (inactive) | > 29.9 µM (inactive) | 1.89 µM (active) | 3.28 µM (active) |  |
| NC(=O)CCCn1c(C(=O)c2cc(Cl)c(N)c(Cl)c2)c2ccc([N+](=O)[O-])cc2[n+]1[O-] |  |  |  |  | IC50 [10]: 12.3 µM (active); IC50 [11]: > 20 µM (inactive) |
| CN(C)c1cccc2c(S(=O)(=O)NC(=O)[C@H]3O[C@@H](n4cnc5c(N)ncnc54)[C@H](O)[C@@H]3O)cccc12 |  |  |  |  | EC50 (Kallikrein-7): 8.16 µM (active) |
| COc1cccc(Nc2nc(C(N)COCc3ccccc3)cs2)n1 (stereo not drawn) | 22.2 µM (inactive) | 21.9 µM (inactive) | 2.55 µM (active) | 8.79 µM (active) |  |
| Cc1ccc(S(=O)(=O)Nc2ccc3c(c2)CC(=O)N([C@@H](C)CO)C[C@@H](C)[C@@H](CN(C)Cc2ccc(Oc4ccccc4)cc2)O3)cc1 |  |  |  |  | AC50 [12]: 4.9 µM (active) |
